The values that follow come from US20240279214A1, “ALPHA4 BETA7 INEGRIN ANTAGONISTS AND USES THEREOF” (XinThera, Inc., priority 2022, published 2024).

Where two headings read alike, the source gives them in different places.

For data set [1] the following is noted: ether bond, 13-membered ring, 100.0 °C.
The conditions of data set [2]: ether bond, 13-membered ring, CuI/K2CO3/(1R,2R)-N1,N2-dimethylcyclohexane-1,2-diamine, 1,4-dioxane, 100.0 °C.

In data set [1] (from CCOC(=O)C[C@H](NC(=O)C(c1cccc(Br)c1)n1cc(CCN2CC(F)C2)c(C(F)(F)F)cc1=O)c1cc(-c2c(C)cc(C3CC3)cc2O)cc(C(F)(F)F)c1F, CuI/(1R,2R)-N1,N2-dimethylcyclohexane-1,2-diamine/K2CO3, dioxane, 40.0 mM, 16.0 h), `CCOC(=O)C[C@@H]1NC(=O)C(n2cc(CCN3CC(F)C3)c(C(F)(F)F)cc2=O)c2cccc(c2)Oc2cc(C3CC3)cc(C)c2-c2cc1c(F)c(C(F)(F)F)c2` (stereo partly drawn) had a ring closure, yield after HPLC of 31.4%. Compound `CCOC(=O)C[C@@H]1NC(=O)C(n2cc(CCN3CC(F)C3)c(C(F)(F)F)cc2=O)c2cccc(c2)Oc2cc(Cl)cc(C)c2-c2cc1c(F)c(C(F)(F)F)c2` (stereo partly drawn) displayed a ring closure, yield after HPLC in data set [1] (from CCOC(=O)C[C@H](NC(=O)C(c1cccc(Br)c1)n1cc(CCN2CC(F)C2)c(C(F)(F)F)cc1=O)c1cc(-c2c(C)cc(Cl)cc2O)cc(C(F)(F)F)c1F, CuI/(1R,2R)-N1,N2-dimethylcyclohexane-1,2-diamine/K2CO3, dioxane, 34.0 mM, 4.0 h) of 33%. For `CCOC(=O)C[C@@H]1NC(=O)C(n2ccc3occc3c2=O)c2cc(ccc2F)Oc2cccc(C)c2-c2cc(C)c(F)c1c2` (stereo partly drawn), the ring closure, yield after HPLC in data set [1] (from CCOC(=O)C[C@H](NC(=O)C(c1cc(Br)ccc1F)n1ccc2occc2c1=O)c1cc(-c2c(C)cccc2O)cc(C)c1F, CuI/(1S,2S)-N,N'-dimethylcyclohexane-1,2-diamine/K2CO3, dioxane, 30.0 mM, 4.0 h) came to 36.3%. Consider `CCOC(=O)C[C@@H]1NC(=O)C(n2cccc(-c3ccccc3)c2=O)c2cc(ccc2F)Oc2cccc(C)c2-c2cc(C)c(F)c1c2` (stereo partly drawn), for which the ring closure, yield after HPLC in data set [1] (from CCOC(=O)C[C@H](NC(=O)C(c1cc(Br)ccc1F)n1cccc(-c2ccccc2)c1=O)c1cc(-c2c(C)cccc2O)cc(C)c1F, CuI/(1R,2R)-N,N'-dimethylcyclohexane-1,2-diamine/K2CO3, dioxane, 70.0 mM, 2.0 h) is 48.2%. Compound `CCOC(=O)C[C@@H]1NC(=O)C(n2cc(CCN(C)C)c(C(F)(F)F)cc2=O)c2cccc(c2)Oc2cccc(C)c2-c2cc(C)c(F)c1c2` (stereo in doubt) gave a ring closure, isolated yield in data set [2] (from CCOC(=O)C[C@H](NC(=O)C(c1cccc(Br)c1)n1cc(CCN(C)C)c(C(F)(F)F)cc1=O)c1cc(-c2c(C)cccc2O)cc(C)c1F, 66.7 mM, 16.0 h) of 61.3%. As to `CCOC(=O)C[C@@H]1NC(=O)C(n2ccc3ccoc3c2=O)c2cc(ccc2F)Oc2cccc(C)c2-c2cc(C)c(F)c1c2` (stereo in doubt), the ring closure, yield after HPLC in data set [1] (from CCOC(=O)C[C@H](NC(=O)C(c1cc(Br)ccc1F)n1ccc2ccoc2c1=O)c1cc(-c2c(C)cccc2O)cc(C)c1F, CuI/(1R,2R)-N,N'-dimethylcyclohexane-1,2-diamine/K2CO3, 1,4-dioxane, 37.5 mM, 4.0 h) is 50.9%. Regarding “ethyl 2-((5S,8S)-1^4,4^4-difluoro-5-(5-(2-(3-fluoroazetidin-1-yl)ethyl)-2-oxo-4-(trifluoromethyl)pyridin-1(2H)-yl)-2^6-methyl-6-oxo-3-oxa-7-aza-1,4(1,3),2(1,2)-tribenzenacyclooctaphane-8-yl)acetate”, in data set [2] (52.0 mM), the ring closure, isolated yield was 74.2%. For “ethyl 2-[(14S,17S)-14-{5-[3-(azetidin-1-yl) propyl]-2-oxo-4-(trifluoromethyl) pyridin-1-yl}-12,19-difluoro-3,20-dimethyl-15-oxo-8-oxa-16-azatetracyclo [16.3.1.1^{9,13}.0^{2,7}] tricosa-1(22),2(7),3,5,9,11,13(23),18,20-nonaen-17-yl] acetate”, the ring closure, isolated yield in data set [2] (46.7 mM) was determined as 62.8%.

The compound “ethyl 2-[(14S,17S)-20-cyclopropyl-12,19-difluoro-3-methyl-15-oxo-14-[2-oxo-4-(trifluoromethyl) pyridin-1-yl]-8-oxa-16-azatetracyclo [16.3.1.1^{9,13}.0^{2,7}]tricosa-1(22),2(7),3,5,9,11,13(23),18,20-nonaen-17-yl]acetate” came in with a ring closure, isolated yield in data set [2] (33.3 mM) of 56.2%.
